Experimental data taken from patent US11840708B2, “Isogenic blood-brain barrier model” (Wisconsin Alumni Research Foundation, priority 2016, dated 2023).
Like-named read-outs stand apart in the source and are kept apart here.

Key:
[1] = Sodium fluorescein permeability across iPSC-derived BMEC monolayer on Transwell; type: in vitro ADME, human; details: human, 48 h
Description: (§1) Permeability Measurements—Sodium fluorescein (10 μM, 376 Daltons; Sigma) was utilized to determine the permeability of the iPSC-BMEC barrier. Following 48 h of monoculture or co-culture, fresh EC medium was added to the Transwell system, with EC medium containing sodium fluorescein added to the top chamber and EC medium lacking sodium fluorescein added to the bottom chamber. 150 uL aliquots were taken from the bottom chamber at 0, 15, 30, 45, and 60 min, and immediately replaced with pre-warmed EC medium. Permeability coefficients were calculated based on the cleared volume of fluorescein from the top chamber to the bottom chamber.

iPSC-derived BMECs = assay: as above; type: in vitro ADME, human; details: CS03iCTRn2-derived BMECs
Description: as §1

## O=C1OC2(c3ccc(O)cc3Oc3cc(O)ccc32)c2ccccc21 [sodium fluorescein, Sodium fluorescein]
[1]; IMR90-4 iPSC-derived BMECs co-cultured with EZ-sphere-derived neurons and astrocytes (1:3), read-out: sodium fluorescein permeability Pe
  Papp at 60 min, 10 μM: 1.2 ± 0.01 nm/s
[1]; IMR90-4 iPSC-derived BMECs co-cultured with NPC-derived astrocytes and neurons, read-out: sodium fluorescein permeability Pe
  Papp at 60 min, 10 μM: 2 ± 1 nm/s
[1]; IMR90-4 iPSC-derived BMECs co-cultured with primary rat astrocytes, read-out: sodium fluorescein permeability Pe
  Papp at 60 min, 10 μM: 1.9 ± 0.1 nm/s
[1]; isogenic co-culture: CS03iCTRn2-derived BMECs with neurons:astrocytes (1:3), read-out: fluorescein permeability Pe
  Papp at 60 min, 10 μM: 0.62 ± 0.11 nm/s
[1]; monocultured CS03iCTRn2-derived BMECs, read-out: fluorescein permeability Pe
  Papp at 60 min, 10 μM: 8.1 ± 0.9 nm/s
[1]; monocultured IMR90-4 iPSC-derived BMECs, read-out: sodium fluorescein permeability Pe
  Papp at 60 min, 10 μM: 4.8 ± 0.3 nm/s
iPSC-derived BMECs
  decrease of fluorescein permeability, isogenic co-culture compared to monoculture: 13 fold
